From ChEMBL document CHEMBL4130360, “Synthesis of 2-imino and 2-hydrazono thiazolo[4,5-d]pyrimidines as corticotropin releasing factor (CRF) antagonists” (Eur J Med Chem, 2017)

Each compound was assayed against T1, Corticotropin-releasing factor receptor 1 (Homo sapiens, UniProt P34998) (assay: Displacement of [125I]-Tyr0-sauvagine from human CRFR1 expressed in HEK293 cell membrane homogenates after 120 mins by gamma counting method).
T1 sequence (P34998 whole entry): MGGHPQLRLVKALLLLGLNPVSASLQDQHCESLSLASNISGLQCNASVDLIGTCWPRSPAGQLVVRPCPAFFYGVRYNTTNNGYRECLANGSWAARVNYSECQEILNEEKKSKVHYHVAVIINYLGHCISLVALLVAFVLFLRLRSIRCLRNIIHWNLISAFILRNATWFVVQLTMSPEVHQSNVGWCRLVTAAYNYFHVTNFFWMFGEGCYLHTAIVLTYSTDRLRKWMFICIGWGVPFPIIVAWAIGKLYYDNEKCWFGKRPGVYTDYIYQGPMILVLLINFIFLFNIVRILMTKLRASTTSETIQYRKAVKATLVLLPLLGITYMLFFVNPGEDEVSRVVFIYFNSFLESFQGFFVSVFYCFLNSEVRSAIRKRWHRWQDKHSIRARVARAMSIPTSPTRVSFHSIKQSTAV
Assay type: cell membranes

**Q.** Which IC50 does the source give for `CCN(CC)c1nc(C)nc2c1sc(=N)n2-c1c(C)cc(C)cc1C` here?
**A.** The IC50 was 891 nM.

**Q.** How did the IC50 turn out when `CCCCN(CC)c1nc(C)nc2c1sc(=N)n2-c1c(C)cc(C)cc1C` was run?
**A.** Its IC50 is 170 nM.

**Q.** For `CCN(CC)c1nc(C)nc2c1s/c(=N/N)n2-c1c(C)cc(C)cc1C`, which IC50 is on record?
**A.** Its IC50 is 447 nM.
